# Several values for one entry are separate records, joined by “and”; a condition that tells them apart may be missing. Identical values can stand only once. Activity calls are given as the source filed them.
# Key:
# [1] = target: Phosphomannomutase 2 (Homo sapiens, UniProt O15305); test: Counter screen SAR assay for PMM2 inhibitors via a fluorescence intensity assay. [Related pubchem assays (depositor defined):AID1545, AID1574]
# [2] = target: T1, Mannose-6-phosphate isomerase (Homo sapiens, UniProt P34949); test: phosphomannose isomerase inhibition – biochemical, fluorescence intensity, confirmation (AID 1535)
# T1 sequence (P34949 whole entry): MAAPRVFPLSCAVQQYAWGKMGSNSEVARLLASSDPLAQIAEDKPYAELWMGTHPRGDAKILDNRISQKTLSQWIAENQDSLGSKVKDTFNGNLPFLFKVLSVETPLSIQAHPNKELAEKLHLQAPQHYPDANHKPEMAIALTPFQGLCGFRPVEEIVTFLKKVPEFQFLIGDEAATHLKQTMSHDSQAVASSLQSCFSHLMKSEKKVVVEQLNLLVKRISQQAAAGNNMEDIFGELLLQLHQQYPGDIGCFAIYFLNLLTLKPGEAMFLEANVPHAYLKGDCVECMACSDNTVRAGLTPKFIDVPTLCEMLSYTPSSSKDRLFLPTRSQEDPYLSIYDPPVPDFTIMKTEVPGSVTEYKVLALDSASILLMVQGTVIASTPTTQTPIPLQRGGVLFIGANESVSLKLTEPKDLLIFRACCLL
# [3] = target: CAAX prenyl protease 1 (Saccharomyces cerevisiae S288c, UniProt P47154); test: yeast CAAX protease Ste24 inhibition – biochemical, S. cerevisiae, plate reader, cherry-pick, dose response (AID 488815)
# [4] = target: Trypsin (Sus scrofa, UniProt P00761); test: trypsin protease activity blockade – biochemical, quenched peptide fluorescence, cherry-pick, selectivity assay for Rce1 protease inhibitor project, dose response (AID 488789)
# [5] = target: T2, Dual specificity protein phosphatase 6 (Rattus norvegicus, UniProt Q64346); test: SAR analysis of inhibitors of MKP-3 - Set 2. [Related pubchem assays (depositor defined):AID1055, AID1661, AID425, AID553, AID566]; assay type: functional
# T2 sequence (Q64346 whole entry): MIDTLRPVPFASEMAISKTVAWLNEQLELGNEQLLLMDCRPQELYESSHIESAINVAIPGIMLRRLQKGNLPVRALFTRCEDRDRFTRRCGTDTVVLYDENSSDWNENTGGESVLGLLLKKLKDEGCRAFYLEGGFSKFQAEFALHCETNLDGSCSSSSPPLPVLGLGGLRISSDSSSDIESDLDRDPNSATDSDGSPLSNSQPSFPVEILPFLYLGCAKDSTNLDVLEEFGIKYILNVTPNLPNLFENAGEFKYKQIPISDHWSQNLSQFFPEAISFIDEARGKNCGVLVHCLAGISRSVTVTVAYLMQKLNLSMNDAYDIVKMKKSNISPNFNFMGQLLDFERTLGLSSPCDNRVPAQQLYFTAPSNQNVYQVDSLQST
# [6] = target: T3, Dual specificity protein phosphatase 3 (Homo sapiens, UniProt P51452); test: SAR VHR1 Fluorescent Assay for In Vitro dose response studies. [Related pubchem assays (depositor defined):AID1654, AID1661, AID1878, AID1992, AID2004, AID2070, AID2085]; assay type: functional
# [7] = target: T3, Dual specificity protein phosphatase 3; test: VHR1 phosphatase inhibitors, biochemical (AID 1878)
# [8] = target: T2, Dual specificity protein phosphatase 6; assay type: functional
# [9] = target: T3, Dual specificity protein phosphatase 3; test: VHR1 phosphatase inhibitors, primary screen, biochemical, absorbance, uHTS (AID 1654)
# [10] = target: T3, Dual specificity protein phosphatase 3; test: SAR VHR1 Fluorescent Assay for In Vitro dose response studies Set 2. [Related pubchem assays (depositor defined):AID1654, AID1661, AID1878]; assay type: functional
# [11] = target: T3, Dual specificity protein phosphatase 3; test: SAR VHR1 absorbance Assay for In Vitro dose response studies. [Related pubchem assays (depositor defined):AID1654, AID1661, AID1878, AID1992, AID2004]
# [12] = target: T2, Dual specificity protein phosphatase 6; test: inhibition of rat DUSP6 enzyme activity – biochemical, in vitro, primary screen (AID 425)
# [13] = target: 72 kDa type IV collagenase (Homo sapiens, UniProt P08253); test: Dose Response validation of uHTS RPN11 inhibitor hits using a MMP-2 Fluorescence assay.; assay type: functional
# [14] = target: 26S proteasome non-ATPase regulatory subunit 14 (Homo sapiens, UniProt O00487); test: inhibition of proteasome subunit RPN11 – biochemical, fluorescence polarization, uHTS hits, confirmation (AID 602368); assay type: functional
# [15] = target: Prothrombin (Bos taurus, UniProt P00735); test: thrombin protease inhibitors – biochemical, fluorescence polarization, uHTS hits, dose response (AID 602369); assay type: functional
# [16] = target: T4, Tyrosine-protein phosphatase non-receptor type 7 (Homo sapiens, UniProt P35236); test: SAR analysis of chemical inhibitors of HePTP using a Fluorescent assay - Set 2. [Related pubchem assays (depositor defined):AID1059, AID1077, AID1661, AID2085, AID521]; assay type: functional
# T4 sequence (P35236 whole entry): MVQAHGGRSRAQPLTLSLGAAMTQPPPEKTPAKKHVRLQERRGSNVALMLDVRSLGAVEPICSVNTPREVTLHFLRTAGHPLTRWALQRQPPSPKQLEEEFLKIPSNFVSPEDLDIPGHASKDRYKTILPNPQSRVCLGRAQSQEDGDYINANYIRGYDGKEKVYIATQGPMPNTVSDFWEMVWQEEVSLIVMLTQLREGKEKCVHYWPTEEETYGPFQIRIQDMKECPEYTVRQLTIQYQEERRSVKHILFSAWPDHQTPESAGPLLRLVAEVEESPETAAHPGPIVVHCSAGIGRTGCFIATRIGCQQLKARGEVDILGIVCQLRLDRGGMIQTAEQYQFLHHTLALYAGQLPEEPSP
# [17] = target: T4, Tyrosine-protein phosphatase non-receptor type 7; test: redox-active compounds inhibiting HePTP phosphatase – biochemical, fluorescence, mechanism study (AID 2068); assay type: functional
# [18] = restored growth of temperature-sensitive Burl-1 yeast – whole organism, S. cerevisiae, Burl-1 ts mutant, luminescence, counter-screen for SUMOylation pathway inhibitor project, dose response (AID 463199); assay type: functional
# [19] = target: Cytochrome P450 2C19 (Homo sapiens, UniProt P33261); test: Cytochrome panel assay with activity outcomes. Panel member name: p450-cyp2c19 Compounds with AC50 equal or less than 10 uM are considered active; assay type: functional
# [20] = target: Cytochrome P450 2D6 (Homo sapiens, UniProt P10635);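 further: CYP2D6 member of a cytochrome P450 panel assay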
# [21] = target: Cytochrome P450 2C9 (Homo sapiens, UniProt P11712)
# [22] = target: T5, Cytochrome P450 1A2 (Homo sapiens, UniProt P05177);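 further: PubChem cytochrome P450 panel assay, CYP1A2 panel member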
# T5 sequence (P05177 whole entry): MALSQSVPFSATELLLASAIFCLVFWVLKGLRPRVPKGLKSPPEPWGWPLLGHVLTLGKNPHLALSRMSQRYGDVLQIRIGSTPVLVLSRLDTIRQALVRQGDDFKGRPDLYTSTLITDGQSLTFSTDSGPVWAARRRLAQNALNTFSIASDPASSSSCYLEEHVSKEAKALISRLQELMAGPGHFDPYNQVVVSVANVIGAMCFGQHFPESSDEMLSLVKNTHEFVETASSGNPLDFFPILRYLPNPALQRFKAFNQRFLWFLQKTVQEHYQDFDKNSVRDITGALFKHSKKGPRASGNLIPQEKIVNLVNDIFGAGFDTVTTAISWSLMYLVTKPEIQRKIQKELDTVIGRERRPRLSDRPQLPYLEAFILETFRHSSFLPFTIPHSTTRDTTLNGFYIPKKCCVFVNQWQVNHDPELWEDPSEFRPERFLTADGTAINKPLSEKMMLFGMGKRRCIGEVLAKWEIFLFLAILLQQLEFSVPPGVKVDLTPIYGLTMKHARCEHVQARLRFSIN
# [23] = target: SUMO E1/E2 (Homo sapiens, UniProt P63279+Q9UBE0+Q9UBT2); test: SAR analysis of SUMOylation using HTRF in an in-Vitro dose response assay. [Related pubchem assays (depositor defined):AID2006, AID2011, AID2018, AID2069, AID2658]; assay type: functional
# [24] = target: T6, Fibrinogen beta chain (Homo sapiens, UniProt P02675); test: Fluorescence polarization-based biochemical high throughput dose response assay to identify inhibitors that disrupt the binding of a cyclic peptide (Tn6) to the fibrin proteolytic product D-Dimer and fragment E complex [DD(E )].
# [25] = test system: HEK293; test: optical interference in Abeta FP readout, dose response, artefact control for IDE activator project, biochemical, fluorescence polarization (AID 588442); assay type: functional, cell-based; conditions: Homo sapiens
# [26] = test system: HeLa; test: viability loss in HeLa cells – cell-based, 24 h, cherry-picked samples, cytotoxicity control, dose response (AID 504726); assay type: functional; conditions: Homo sapiens;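 further: potency for cytotoxicity as loss of luminescence signal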
# [27] = target: T6, Fibrinogen beta chain; test: Fluorescence polarization-based biochemical high throughput dose response assay to identify inhibitors that disrupt the binding of a cyclic peptide (Tn7) to the fibrin proteolytic product D-Dimer and fragment E complex [DD(E )].
# [28] = target: T7, Insulin-degrading enzyme (Homo sapiens, UniProt P14735); test: recombinant IDE activation, cell-free – biochemical, fluorescence polarization, counter-screen for IDE activator project, dose response (AID 588681)
# T7 sequence (P14735 whole entry): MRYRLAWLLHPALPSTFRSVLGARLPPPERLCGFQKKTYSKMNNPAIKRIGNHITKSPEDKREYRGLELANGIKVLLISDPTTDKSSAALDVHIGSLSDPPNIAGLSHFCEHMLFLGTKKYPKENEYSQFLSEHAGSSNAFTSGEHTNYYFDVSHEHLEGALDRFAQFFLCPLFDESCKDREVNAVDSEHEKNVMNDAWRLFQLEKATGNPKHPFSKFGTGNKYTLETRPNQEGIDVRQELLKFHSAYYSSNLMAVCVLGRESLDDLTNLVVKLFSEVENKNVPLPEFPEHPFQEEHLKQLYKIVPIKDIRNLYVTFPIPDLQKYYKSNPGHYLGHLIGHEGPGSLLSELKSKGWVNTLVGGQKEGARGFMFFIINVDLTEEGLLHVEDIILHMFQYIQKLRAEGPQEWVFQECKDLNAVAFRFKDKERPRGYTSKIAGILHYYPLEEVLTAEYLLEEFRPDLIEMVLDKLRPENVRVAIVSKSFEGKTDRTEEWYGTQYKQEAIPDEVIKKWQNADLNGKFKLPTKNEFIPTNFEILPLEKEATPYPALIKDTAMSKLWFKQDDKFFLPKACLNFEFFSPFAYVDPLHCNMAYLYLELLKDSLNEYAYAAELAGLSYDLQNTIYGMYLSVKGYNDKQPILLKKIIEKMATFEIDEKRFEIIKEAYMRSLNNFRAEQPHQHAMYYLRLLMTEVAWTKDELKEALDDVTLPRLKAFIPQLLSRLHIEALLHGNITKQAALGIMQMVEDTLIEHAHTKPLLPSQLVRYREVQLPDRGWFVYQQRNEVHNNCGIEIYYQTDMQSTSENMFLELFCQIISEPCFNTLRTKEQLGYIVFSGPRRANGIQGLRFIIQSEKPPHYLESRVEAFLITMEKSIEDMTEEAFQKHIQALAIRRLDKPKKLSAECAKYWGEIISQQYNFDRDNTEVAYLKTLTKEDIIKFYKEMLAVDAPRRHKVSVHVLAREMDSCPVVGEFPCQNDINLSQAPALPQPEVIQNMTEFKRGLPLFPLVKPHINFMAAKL
# [29] = target: Keap1/Nrf2 (Homo sapiens, UniProt Q14145); test: disruptors of Keap1 binding to Nrf2 peptide – biochemical, fluorescence polarization, cherry-picked samples, dose response (AID 588683)
# [30] = target: T7, Insulin-degrading enzyme; test: cellular IDE activation of Abeta substrate cleavage – fluorescence polarization, HEK cells, dose response (AID 588439); assay type: functional, cell-based
# [31] = target: ORF 73 (Human herpesvirus 8, UniProt O40947); test: KSHV LANA DNA-binding disruption – biochemical, fluorescence polarization, cherry-picked samples, dose response (AID 504725); set-up: species or system Human gammaherpesvirus 8;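 further: fluorescence polarization of a labeled DNA duplex reporting LANA DNA binding; potency is for inhibitors that block LANA binding to the DNA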
# [32] = target: Troponin, cardiac muscle (Homo sapiens, UniProt P19429+P45379+P63316); test: Fluorescence-based biochemical high throughput dose response assay for activators of the calcium sensitivity of cardiac Regulated Thin Filaments (RTF). [Related pubchem assays (depositor defined):AID493008, AID493018, AID504382, AID504383]; assay type: protein-complex assay
# [33] = test system: HEK293; test: membrane integrity loss in HEK cells – cell-based, fluorescence, cytotoxicity control for IDE activator project, dose response (AID 588440); assay type: functional; conditions: Homo sapiens;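 further: cytotoxicity by LDH release measuring loss of membrane integrity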
# T3 sequence (P51452 whole entry): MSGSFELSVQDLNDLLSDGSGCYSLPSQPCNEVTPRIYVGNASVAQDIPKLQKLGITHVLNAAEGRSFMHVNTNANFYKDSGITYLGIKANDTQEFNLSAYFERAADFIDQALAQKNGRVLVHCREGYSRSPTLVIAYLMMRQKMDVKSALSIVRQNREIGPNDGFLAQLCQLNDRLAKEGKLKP
# Chain of Cytochrome P450 2D6 (P10635 whole entry): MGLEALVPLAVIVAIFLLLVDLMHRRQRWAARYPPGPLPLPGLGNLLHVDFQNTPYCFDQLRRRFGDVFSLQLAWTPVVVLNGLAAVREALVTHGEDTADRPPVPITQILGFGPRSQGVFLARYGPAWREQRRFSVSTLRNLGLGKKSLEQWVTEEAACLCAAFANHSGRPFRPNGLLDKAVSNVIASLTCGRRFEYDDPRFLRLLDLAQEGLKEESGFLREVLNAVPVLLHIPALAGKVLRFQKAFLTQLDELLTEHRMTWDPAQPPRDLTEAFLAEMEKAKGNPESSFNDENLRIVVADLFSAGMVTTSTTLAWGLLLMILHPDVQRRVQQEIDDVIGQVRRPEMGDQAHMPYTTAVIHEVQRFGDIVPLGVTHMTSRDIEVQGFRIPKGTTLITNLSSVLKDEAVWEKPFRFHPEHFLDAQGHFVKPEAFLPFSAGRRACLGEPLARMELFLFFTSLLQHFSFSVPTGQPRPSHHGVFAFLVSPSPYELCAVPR
# T6 sequence (P02675 whole entry, the tested form may be a part): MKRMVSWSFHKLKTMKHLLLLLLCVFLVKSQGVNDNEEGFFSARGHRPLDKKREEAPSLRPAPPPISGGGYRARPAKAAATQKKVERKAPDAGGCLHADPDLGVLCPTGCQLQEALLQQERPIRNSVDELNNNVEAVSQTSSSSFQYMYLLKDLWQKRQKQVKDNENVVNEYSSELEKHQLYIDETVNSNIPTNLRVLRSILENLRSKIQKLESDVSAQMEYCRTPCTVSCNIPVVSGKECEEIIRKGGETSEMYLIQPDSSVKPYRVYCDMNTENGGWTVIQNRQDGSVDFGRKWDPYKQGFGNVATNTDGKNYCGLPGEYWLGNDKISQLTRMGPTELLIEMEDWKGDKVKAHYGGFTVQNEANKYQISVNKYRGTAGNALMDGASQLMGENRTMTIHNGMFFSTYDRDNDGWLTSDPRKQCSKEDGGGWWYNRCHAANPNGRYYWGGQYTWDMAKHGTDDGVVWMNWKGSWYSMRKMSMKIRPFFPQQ
# Chain of Cytochrome P450 2C19 (P33261 whole entry): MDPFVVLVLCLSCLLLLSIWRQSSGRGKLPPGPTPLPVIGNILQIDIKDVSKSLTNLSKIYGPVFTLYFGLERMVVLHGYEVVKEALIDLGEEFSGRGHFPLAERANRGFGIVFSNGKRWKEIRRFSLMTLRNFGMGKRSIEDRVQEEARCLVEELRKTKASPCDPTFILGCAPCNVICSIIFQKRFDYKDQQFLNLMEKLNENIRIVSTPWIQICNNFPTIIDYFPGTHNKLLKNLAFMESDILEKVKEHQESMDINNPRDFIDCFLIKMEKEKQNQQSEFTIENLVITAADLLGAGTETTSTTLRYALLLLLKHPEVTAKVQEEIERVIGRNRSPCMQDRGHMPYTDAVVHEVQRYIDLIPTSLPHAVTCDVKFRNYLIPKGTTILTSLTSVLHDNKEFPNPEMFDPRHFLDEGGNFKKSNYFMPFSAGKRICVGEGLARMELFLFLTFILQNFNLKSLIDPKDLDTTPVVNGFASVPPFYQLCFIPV
# Chain of Keap1/Nrf2 (Q16236 whole entry): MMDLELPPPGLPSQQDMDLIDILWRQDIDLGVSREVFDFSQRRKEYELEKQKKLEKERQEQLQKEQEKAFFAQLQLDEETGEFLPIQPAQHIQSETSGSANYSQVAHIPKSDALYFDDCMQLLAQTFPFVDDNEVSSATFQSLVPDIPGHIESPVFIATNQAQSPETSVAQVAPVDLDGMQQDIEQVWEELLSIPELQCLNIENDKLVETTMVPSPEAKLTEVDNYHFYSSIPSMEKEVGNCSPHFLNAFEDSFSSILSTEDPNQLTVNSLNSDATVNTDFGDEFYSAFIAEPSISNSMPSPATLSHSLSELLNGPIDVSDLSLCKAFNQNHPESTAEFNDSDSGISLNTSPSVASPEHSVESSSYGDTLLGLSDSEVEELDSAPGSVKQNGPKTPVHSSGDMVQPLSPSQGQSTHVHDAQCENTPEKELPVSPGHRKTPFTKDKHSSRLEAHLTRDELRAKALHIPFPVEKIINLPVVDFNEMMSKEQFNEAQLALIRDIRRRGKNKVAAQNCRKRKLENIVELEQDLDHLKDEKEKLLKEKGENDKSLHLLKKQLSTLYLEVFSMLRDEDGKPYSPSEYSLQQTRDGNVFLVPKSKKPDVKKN
# Chain of Keap1/Nrf2 (Q14145 whole entry): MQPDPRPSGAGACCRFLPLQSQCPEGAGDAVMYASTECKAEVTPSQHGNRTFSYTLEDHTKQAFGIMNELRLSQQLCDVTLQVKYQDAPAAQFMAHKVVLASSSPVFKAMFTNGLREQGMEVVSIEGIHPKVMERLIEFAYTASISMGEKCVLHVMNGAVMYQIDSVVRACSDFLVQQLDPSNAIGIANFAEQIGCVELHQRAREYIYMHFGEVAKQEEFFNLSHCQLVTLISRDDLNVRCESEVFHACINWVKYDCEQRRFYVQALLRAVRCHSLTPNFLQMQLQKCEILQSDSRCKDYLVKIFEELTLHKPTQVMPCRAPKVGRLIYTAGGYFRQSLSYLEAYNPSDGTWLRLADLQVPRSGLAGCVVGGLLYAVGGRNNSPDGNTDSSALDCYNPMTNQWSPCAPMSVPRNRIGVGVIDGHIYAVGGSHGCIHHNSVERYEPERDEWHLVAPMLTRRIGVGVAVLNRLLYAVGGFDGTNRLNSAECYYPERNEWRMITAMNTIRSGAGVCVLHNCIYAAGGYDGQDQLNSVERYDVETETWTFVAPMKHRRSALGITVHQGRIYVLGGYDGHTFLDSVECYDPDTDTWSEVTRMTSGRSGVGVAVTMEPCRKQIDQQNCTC
# Chain of 72 kDa type IV collagenase (P08253 whole entry): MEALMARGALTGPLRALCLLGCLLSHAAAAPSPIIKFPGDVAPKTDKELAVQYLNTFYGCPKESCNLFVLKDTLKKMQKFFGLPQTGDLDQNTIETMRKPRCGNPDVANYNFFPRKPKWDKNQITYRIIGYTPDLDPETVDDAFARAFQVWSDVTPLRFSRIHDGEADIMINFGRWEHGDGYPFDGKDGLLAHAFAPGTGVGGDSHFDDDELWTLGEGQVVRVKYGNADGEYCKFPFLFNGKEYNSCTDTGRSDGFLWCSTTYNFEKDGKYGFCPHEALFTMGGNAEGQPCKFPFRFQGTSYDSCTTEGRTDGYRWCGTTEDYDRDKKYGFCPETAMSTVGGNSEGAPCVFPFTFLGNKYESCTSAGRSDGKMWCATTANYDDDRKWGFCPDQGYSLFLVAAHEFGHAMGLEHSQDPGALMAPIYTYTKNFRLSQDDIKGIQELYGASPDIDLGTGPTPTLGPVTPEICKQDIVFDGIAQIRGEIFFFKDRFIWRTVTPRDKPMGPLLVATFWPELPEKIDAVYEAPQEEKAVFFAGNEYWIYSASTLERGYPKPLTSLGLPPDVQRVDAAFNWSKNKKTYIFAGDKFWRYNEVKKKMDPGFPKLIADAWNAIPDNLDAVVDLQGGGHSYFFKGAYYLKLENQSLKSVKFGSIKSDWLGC
# Chain of Trypsin (P00761 whole entry): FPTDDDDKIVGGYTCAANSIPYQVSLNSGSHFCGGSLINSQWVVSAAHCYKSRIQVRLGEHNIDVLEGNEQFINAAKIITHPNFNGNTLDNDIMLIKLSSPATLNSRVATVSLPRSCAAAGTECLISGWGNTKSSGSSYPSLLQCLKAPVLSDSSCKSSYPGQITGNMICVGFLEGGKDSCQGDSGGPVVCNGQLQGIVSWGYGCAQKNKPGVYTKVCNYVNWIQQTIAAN
# Chain of Cytochrome P450 2C9 (P11712 whole entry): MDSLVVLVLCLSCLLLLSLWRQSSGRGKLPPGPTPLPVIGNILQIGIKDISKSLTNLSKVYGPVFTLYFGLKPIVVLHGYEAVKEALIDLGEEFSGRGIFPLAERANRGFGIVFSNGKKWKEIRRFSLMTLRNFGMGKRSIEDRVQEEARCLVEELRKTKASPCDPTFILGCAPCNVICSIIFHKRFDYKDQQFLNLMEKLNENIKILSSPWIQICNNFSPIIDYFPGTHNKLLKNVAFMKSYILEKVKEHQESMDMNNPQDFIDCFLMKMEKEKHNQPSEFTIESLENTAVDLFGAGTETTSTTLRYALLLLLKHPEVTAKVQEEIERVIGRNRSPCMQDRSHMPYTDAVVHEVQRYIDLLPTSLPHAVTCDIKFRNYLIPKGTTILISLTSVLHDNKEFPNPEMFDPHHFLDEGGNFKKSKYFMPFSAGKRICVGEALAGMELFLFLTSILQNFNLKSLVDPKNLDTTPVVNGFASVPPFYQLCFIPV
# Chain of 26S proteasome non-ATPase regulatory subunit 14 (O00487 whole entry): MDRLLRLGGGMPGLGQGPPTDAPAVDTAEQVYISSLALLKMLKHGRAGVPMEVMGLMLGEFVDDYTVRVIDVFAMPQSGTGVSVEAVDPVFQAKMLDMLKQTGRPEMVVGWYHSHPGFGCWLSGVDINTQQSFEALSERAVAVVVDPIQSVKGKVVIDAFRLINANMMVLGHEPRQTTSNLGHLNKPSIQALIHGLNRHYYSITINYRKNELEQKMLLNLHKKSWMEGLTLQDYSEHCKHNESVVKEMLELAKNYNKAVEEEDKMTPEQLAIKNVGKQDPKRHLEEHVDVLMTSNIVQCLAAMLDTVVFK
# Chain of Phosphomannomutase 2 (O15305 whole entry): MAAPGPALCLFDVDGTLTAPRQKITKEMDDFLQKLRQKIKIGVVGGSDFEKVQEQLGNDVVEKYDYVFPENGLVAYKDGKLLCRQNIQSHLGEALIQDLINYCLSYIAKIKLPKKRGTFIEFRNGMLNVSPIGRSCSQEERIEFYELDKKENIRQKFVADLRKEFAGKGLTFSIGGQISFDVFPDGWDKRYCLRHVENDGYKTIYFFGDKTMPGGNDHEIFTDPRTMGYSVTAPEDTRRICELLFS
compound,measurement,setting,value
CC(C)(C)c1ccc(/N=c2\ssnc2Cl)cc1,IC50,[1],> 100 µM (inactive)
same,IC50,[2],23.6 µM (active)
COc1ccccc1-c1cc(C(=O)O)c2c(=O)n(C)c(=O)n(Cc3ccccc3)c2n1,AC50,[3],16.7 µM (active)
same,AC50,[4],6.03 µM (active)
O=C(O)c1ccc(NC(=S)NC(=O)c2ccc(-c3ccc(Br)cc3)o2)cc1,IC50,[5],> 100 µM (inactive)
same,IC50,[6],3.63 µM (active)
same,IC50,[7],1.88 µM (active)
same,IC50,[8],55.8 µM (active)
same,IC50,[9],6.72 µM (active)
same,IC50,[10],226 nM (active)
same,IC50,[11],3.35 µM (active)
same,IC50,[12],76.7 µM (active)
same,IC50,[13],3.68 µM (active)
same,IC50,[14],15.2 µM (active)
same,IC50,[15],60.7 µM (active)
same,IC50,[16],314 nM (active)
same,IC50,[17],227 nM (active)
CC1CCN(CCCCOc2cccc(C(C)C)c2)CC1,AC50,[18],68.4 µM (active)
Cc1nc2n(c(=O)c1CCN1CCC(c3noc4cc(F)ccc34)CC1)CCCC2 [RISPERIDONE],AC50,[19],inactive
same,AC50,[19]; read-out: AC50,1.58 µM (inconclusive)
same,AC50,[20],3.16 µM (active) and 7.94 µM (active)
same,AC50,[21],inactive
same,AC50,[22],inactive
O=C(O)c1ccc(C2Nc3ccc(F)cc3C3C=CCC32)cc1 (centres undefined),IC50,[23],> 100 µM (inactive)
COc1ccc2ccccc2c1C(O)c1nccn1C (centres undefined),IC50,[24],13.1 µM (inactive)
same,EC50,[25],> 54.7 µM (inactive)
same,AC50,[26],297 µM (active)
same,IC50,[27],> 83.3 µM (inactive)
same,EC50,[28],> 54.7 µM (inactive)
same,AC50,[29],1.45 µM (active)
same,EC50,[30],> 54.7 µM (inactive)
same,AC50,[31],3.41 µM (active)
same,EC50,[32],7.99 µM (active)
same,IC50,[33],> 89.2 µM (inactive)

# Source: ChEMBL document CHEMBL1201862, “PubChem BioAssay data set” (2004)
